Where a SMILES comes first, the peptide text is derived from it. The star is where a group is joined. Cbz = O=C(OCc1ccccc1)*; CH2F = FC*
Columns and labels:
[1] = test system: activated peripheral blood CD4+ T-lymphocytes; test: Caspase activation (FITC-VAD-FMK staining, flow cytometry) in activated primary CD4+ T cells; format: cell-based, human; conditions: for inhibition of PCI-13/FasL-MV-induced apoptosis (caspase-VAD-FITC binding): CD4+, IRX-2 1:3 or IL-7, IL-15 100 ng/mL 24 hours, MV 15 μg 24 hours; for mean % of FITC-VAD-FMK+ cells ± SD: CD4+ cells, 24 hours pre-incubation (IRX-2 1:3, IL-2 100 IU/mL, IL-7/IL-15 10 ng/mL)
Text: (§1) The head and neck squamous cell carcinoma (H&NSCC) cell line […] was established in Applicants' laboratory and maintained as previously described. It was retrovirally transfected with the human FasL gene obtained from Dr. S. Nagata (Osaka Biosciences Institute, Osaka, Japan) as previously reported. Supernatants of transfected PCI-13-cells (PCI-13-FasL), which contained both sFasL and the 42 kDa membranous form of FasL, were used as a source of tumor-derived microvesicles (MV). Jurkat cells were obtained from American Tissue Culture Collection (ATCC, Manassas, Va.) and were transfected with CD8. The CD8+ Jurkat cells were cultured in RPMI 1640 medium supplemented with 10% (v/v) fetal bovine serum (FBS), L-glutamine and antibiotics. Human T lymphocytes were isolated from peripheral blood mononuclear cells (PBMC) obtained from consented normal donors. PBMC were isolated by Ficoll-Hypaque density gradient centrifugation (GE Healthcare Bio-Sciences Corp., Piscataway, N.J.), washed and plated for 1 hour at 37° C. in culture flasks (T162) in an atmosphere of 5% CO2 to remove CD14+ monocytes. The non-adherent T-lymphocyte fraction was collected and immediately used for experiments or cryopreserved. CD8+ T cells or CD4+ T cells were purified by positive selection using CD8 MicroBeads or CD4 MicroBeads, respectively (Miltenyi Biotec, Auburn, Calif.) using the AutoMACS system according to the manufacturer's instructions. Purified CD8+ or CD4+ T cells were then cultured for 2-3 days in AIM V medium supplemented with 10% FBS in the presence of beads coated with anti-CD3 and anti-CD28 antibodies (T Cell Activation/Expansion Kit, Miltenyi Biotec). All cells used for the above described experiments were in the log phase of growth.
(§2) CD8+ Jurkat cells or activated normal T lymphocytes were plated at 0.3×10^6 cells per well in a 96-well plate and pre-treated or not with IRX-2 or with recombinant human cytokines at a final concentration of 10 ng/mL or 100 IU/mL for 24 hours (unless otherwise noted). MV (10 μg protein per 0.3×10^6 cells) were then added for 3-24 hours. In some experiments, cells were first co-incubated with MV for 3-24 hours, then washed and treated further with IRX-2 or cytokines or treated for the indicated time period with MV and IRX-2 added simultaneously. In selected blocking experiments, anti-Fas neutralizing monoclonal antibody, ZB-4, the pan-caspase inhibitor, Z-VAD-FMK, or the specific Akt-inhibitor or specific inhibitors for caspase-3, caspase-8 and caspase-9 were added at the indicated concentrations prior to MV co-incubation.
(§3) Four color flow cytometry was performed using a […] (Beckman Coulter) equipped with Expo32 software (Beckman Coulter). Lymphocytes were gated based on morphology, and debris, MV as well as monocytes and granulocytes were excluded, collecting data on at least 10^5 cells. For the analysis of activated primary T lymphocytes, gates were restricted to the CD3^+CD8^+ or CD3^+CD4^+ T-cell subsets. Data was analyzed using Coulter EXPO 32vl.2 analysis software.
(§4) Total cellular Caspase activity was tested by intracellular staining of activated caspases using a pan caspase inhibitor, CASPACE FITC-VAD-FMK In Situ Marker (Promega, Madison, Wis.). Cells were resuspended in PBS and FITC-VAD-FMK was added at a final concentration of 5 μM. The cells were incubated for 20 minutes at 37° C., 5% CO2 and washed with PBS. Then cells were stained for cell surface receptors, fixed with 1% paraformaldehyde and analyzed by flow cytometry. The specific activation of caspase-3 and caspase-7 was measured using the VYBRANT FAM caspase-3 and -7 Assay Kit from Invitrogen (Carlsbad, Calif.) according to the manufacturers' instructions. Briefly, cells were resuspended in PBS and stained with a 150× dilution of the carboxyfluorescein (FAM)-labeled FMK-caspase inhibitor for 60 minutes at 37° C., 5% CO2. Then the cells were washed in wash buffer and fixed with 1% paraformaldehyde.

CD8+ Jurkat cells [2] = format: cell-based; conditions: 24 hours pre-treatment (IRX-2 1:3; IL-7, IL-15 10 ng/mL), PCI-13/FasL-MV 15 μg 3 hours; no IRX-2 lane 50%
Procedure: as §2
Total cellular Caspase activity was tested by intracellular staining of activated caspases using a pan caspase inhibitor, CASPACE FITC-VAD-FMK In Situ Marker (Promega, Madison, Wis.). […] Then cells were stained for cell surface receptors, fixed with 1% paraformaldehyde and analyzed by flow cytometry. The specific activation of caspase-3 and caspase-7 was measured using the VYBRANT FAM caspase-3 and -7 Assay Kit from Invitrogen (Carlsbad, Calif.) according to the manufacturers' instructions. […]

[3] = test system: activated peripheral blood CD8+ T-lymphocytes; test: Caspase activation (FITC-VAD-FMK staining, flow cytometry) in activated primary CD8+ T cells; format: cell-based, human; conditions: for inhibition of PCI-13/FasL-MV-induced apoptosis (caspase-VAD-FITC binding): CD8+, IRX-2 1:3 or IL-7, IL-15 100 ng/mL 24 hours, MV 15 μg 24 hours; for mean % of FITC-VAD-FMK+ cells ± SD: CD8+ cells, 24 hours pre-incubation (IRX-2 1:3, IL-2 100 IU/mL, IL-7/IL-15 10 ng/mL)
Text: as §1, §2, §3, §4

CD8+ Jurkat cells [4] = test: Loss of mitochondrial membrane potential (JC-1) in CD8+ Jurkat cells; format: cell-based, human; conditions: IRX-2 1:3 24 hours pre-treatment, MV 10 μg 24 hours
Procedure: The loss of mitochondrial membrane potential (MMP) as a hallmark of apoptosis was measured using the MITOPROBE JC-1 Assay Kit from Invitrogen (Carlsbad, Calif.). The cationic dye JC-1 (5,5′, 6,6′-tetrachloro-1,1′, 3,3′-tetraethylbenzimidazolylcarbocyanine iodide) exists in healthy cells as a green monomer in the cytosol and also accumulates as red aggregates in the mitochondria. In apoptotic and necrotic cells, JC-1 remains only in the cytoplasm due to mitochondrial depolarization, which can be detected by flow cytometry as a decrease in the red/green fluorescence intensity ratio. CD8+ Jurkat cells or activated T lymphocytes were incubated in PBS containing 2 μM of JC-1 for 30 minutes at 37° C., 5% CO2. […] The cells were analyzed using a flow cytometer immediately after staining.
CD8+ Jurkat cells were analyzed by flow cytometry for a decrease in red fluorescence of the cationic dye JC-1, indicating a loss of MMP. Percentage of JC-1 red-negative cells were determined in cultures of CD8+ Jurkat cells after no treatment, 24 hours treatment with MV (10 μg) alone (no IRX) or pre-treated for 24 hours with IRX-2 (1:3 dilution) or MV in combination with the apoptosis-inhibitor Z-VAD-FMK (pan-caspase inhibitor; conc) or ZB4 (anti-Fas neutralizing mAb, conc/dose). […]

caspase-3 and caspase-7 = test: Caspase-3/-7 activation (caspase 3/7-FAM flow cytometry, Western immunoblot) in CD8+ Jurkat cells; format: cell-based, human; conditions: IRX-2 1:3 24 hours pre-treatment; zVAD 20 μM; ZB4 10 μg/mL; MV 10 μg 3 hours
Procedure: To determine total or phosphorylated forms of Akt, Bcl-2, CD3ζ, caspase-3, JAK3, STAT5, FLIP, and Mcl-1, Jurkat CD8+ cells or purified activated CD8+ or CD4+ T-cells were co-incubated with MV at the indicated concentration and/or with IRX-2 (1:3 final dilution) for the indicated period of time at 37° C. The cells were then washed, centrifuged at 4° C. and lysed in equal volumes of ice-cold lysis-buffer (50 mM Tris-HCL pH 7.5, 150 mM NaCl, 0.5% Nonidet P-40) and protease inhibitor cocktail (Pierce Chemical Co., Rockford, Ill.). After lysis, the homogenates were clarified by centrifugation. The supernatants were isolated, and boiled for 5 minutes in 5× Laemmli sample buffer. […]
Total cellular Caspase activity was tested by intracellular staining of activated caspases using a pan caspase inhibitor, CASPACE FITC-VAD-FMK In Situ Marker (Promega, Madison, Wis.). […] Then cells were stained for cell surface receptors, fixed with 1% paraformaldehyde and analyzed by flow cytometry. The specific activation of caspase-3 and caspase-7 was measured using the VYBRANT FAM caspase-3 and -7 Assay Kit from Invitrogen (Carlsbad, Calif.) according to the manufacturers' instructions. […] The cells were analyzed by flow cytometry with the fluorescein measured on the FL1 channel. […]

[5] = Table 2A MV-induced apoptosis, then 10 μg MV 24 hours
[6] = Table 2B CH-11 Ab-induced apoptosis, then 400 ng/mL CH-11 Ab 24 hours

Question: With “IL-7: human recombinant survival cytokine, purchased from Peprotech” as the molecule, how does the “inhibition of PCI-13/FasL-MV-induced apoptosis (caspase-VAD-FITC binding)” value [1] read?
Answer: similarly effective compared to IRX-2

Question: What about the “mean % of FITC-VAD-FMK+ cells ± SD” value [1, 5] of the same molecule?
Answer: 34.5 ± 1.9%

Question: What about the “mean % of FITC-VAD-FMK+ cells ± SD” value [1, 6] of the same molecule?
Answer: 31.8 ± 10.6%

Question: What about the “apoptotic cells (activated caspase-VAD-FITC binding CD8+ Jurkat cells)” value (CD8+ Jurkat cells [2]) of the same molecule?
Answer: neither IL-7 nor IL-15 alone was able to reduce the level of apoptosis below the control MV-induced level

Question: And the “inhibition of PCI-13/FasL-MV-induced apoptosis (caspase-VAD-FITC binding)” value [3]?
Answer: similarly effective compared to IRX-2

Question: And the “mean % of FITC-VAD-FMK+ cells ± SD” value [3, 5]?
Answer: 49.5 ± 3.5%

Question: What about the “mean % of FITC-VAD-FMK+ cells ± SD” value [3, 6] of the same molecule?
Answer: 37.7 ± 1.4%

Question: For `COC(=O)C[C@H](NC(=O)[C@H](C)NC(=O)[C@@H](NC(=O)OCc1ccccc1)C(C)C)C(=O)CF` [zVAD] (Cbz-Val-Ala-Asp(OMe)-CH2F), which “MV-induced loss of mitochondrial membrane potential (JC-1 red-negative cells)” value (CD8+ Jurkat cells [4]) is on record?
Answer: block was comparable to that provided by the two inhibitors

Question: And the “MV-induced induction of caspase-3 and -7 activity (caspase-3/-7-FAM MFI)” value (caspase-3 and caspase-7)?
Answer: completely prevented

Question: Which results are given for “IL-15: human recombinant survival cytokine, purchased from Peprotech”?
Answer: inhibition of PCI-13/FasL-MV-induced apoptosis (caspase-VAD-FITC binding) [1]: similarly effective compared to IRX-2; mean % of FITC-VAD-FMK+ cells ± SD [1, 5]: 16.7 ± 2.1%; mean % of FITC-VAD-FMK+ cells ± SD [1, 6]: 21.1 ± 5.3%; apoptotic cells (activated caspase-VAD-FITC binding CD8+ Jurkat cells) (CD8+ Jurkat cells [2]): neither IL-7 nor IL-15 alone was able to reduce the level of apoptosis below the control MV-induced level; inhibition of PCI-13/FasL-MV-induced apoptosis (caspase-VAD-FITC binding) [3]: similarly effective compared to IRX-2; mean % of FITC-VAD-FMK+ cells ± SD [3, 5]: 16.8 ± 6.2%; mean % of FITC-VAD-FMK+ cells ± SD [3, 6]: 28.8 ± 3.1%

Reference: US7993660B2, “Method of increasing immunological effect” (IRx Therapeutics, Inc., priority 2007, dated 2011)
